Measurements as given in ChEMBL document CHEMBL1124790, “Angiotensin converting enzyme inhibitors. 10. Aryl sulfonamide substituted N-[1-carboxy-3-phenylpropyl]-L-alanyl-L-proline derivatives as novel antihypertensives” (J Med Chem, 1990).
“And” between values parts separate entries of the source, which are not always exact repeats. Equal values may be shown once. The source made the active and inactive calls. The calls are words filed in the database; no cut-off is given here.

Legend:
Rattus norvegicus [1] = test: Percent change in urinary volume in fasted rats at the dose of 25 mg/kg (iv), 0-5 h; type: functional, Urine
Rattus norvegicus [2] = test: Percent change in K+ in fasted rats at the dose of 25 mg/kg (iv), 5-24 h; type: functional
[3] = biological target: T1, Angiotensin-converting enzyme (Oryctolagus cuniculus) (UniProt P12822); test: Time during which angiotensin I converting enzyme inhibition is greater than or equa to 30% in rabbit lung; type: functional, tissue-based
T1 sequence (whole entry): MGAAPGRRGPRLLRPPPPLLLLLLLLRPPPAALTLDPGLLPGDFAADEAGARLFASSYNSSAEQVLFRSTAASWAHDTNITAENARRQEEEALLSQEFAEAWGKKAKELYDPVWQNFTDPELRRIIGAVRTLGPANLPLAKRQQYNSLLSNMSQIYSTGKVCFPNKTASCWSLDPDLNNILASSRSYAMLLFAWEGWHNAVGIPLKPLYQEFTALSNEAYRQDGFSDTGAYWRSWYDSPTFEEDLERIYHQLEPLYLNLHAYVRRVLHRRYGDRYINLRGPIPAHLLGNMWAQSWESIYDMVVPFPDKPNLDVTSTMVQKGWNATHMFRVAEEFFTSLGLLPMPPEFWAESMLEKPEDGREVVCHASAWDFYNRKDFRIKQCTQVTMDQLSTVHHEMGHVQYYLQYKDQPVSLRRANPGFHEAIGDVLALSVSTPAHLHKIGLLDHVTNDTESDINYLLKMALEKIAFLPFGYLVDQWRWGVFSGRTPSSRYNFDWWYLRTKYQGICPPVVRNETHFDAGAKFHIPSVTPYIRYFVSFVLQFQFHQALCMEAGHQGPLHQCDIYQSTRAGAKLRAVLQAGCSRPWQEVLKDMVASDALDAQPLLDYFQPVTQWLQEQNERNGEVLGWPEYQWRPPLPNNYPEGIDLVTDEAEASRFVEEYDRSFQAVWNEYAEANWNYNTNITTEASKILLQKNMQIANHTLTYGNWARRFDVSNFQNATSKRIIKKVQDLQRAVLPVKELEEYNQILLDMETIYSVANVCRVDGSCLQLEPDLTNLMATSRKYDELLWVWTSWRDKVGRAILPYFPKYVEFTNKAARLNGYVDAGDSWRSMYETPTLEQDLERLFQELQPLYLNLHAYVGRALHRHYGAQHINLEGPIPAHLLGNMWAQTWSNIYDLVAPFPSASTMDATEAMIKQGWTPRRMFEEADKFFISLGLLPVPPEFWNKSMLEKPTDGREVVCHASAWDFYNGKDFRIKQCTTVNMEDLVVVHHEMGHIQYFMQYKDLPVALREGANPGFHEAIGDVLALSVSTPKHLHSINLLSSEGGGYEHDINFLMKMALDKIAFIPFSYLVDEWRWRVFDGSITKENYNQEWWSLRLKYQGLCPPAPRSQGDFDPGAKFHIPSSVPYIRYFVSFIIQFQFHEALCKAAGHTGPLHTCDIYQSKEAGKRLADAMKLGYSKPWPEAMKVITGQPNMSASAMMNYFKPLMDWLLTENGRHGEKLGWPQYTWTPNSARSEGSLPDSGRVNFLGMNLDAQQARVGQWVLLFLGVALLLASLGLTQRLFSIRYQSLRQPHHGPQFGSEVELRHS

Rattus norvegicus [4] = test: Percent change in K+ in fasted rats at the dose of 25 mg/kg (iv), 0-5 h; type: functional
Rattus norvegicus [5] = test: Percent change in urinary volume in fasted rats at the dose of 25 mg/kg (iv), 5-24 h; type: functional, Urine
Rattus norvegicus [6] = test: Percent change in Na+ in fasted rats at the dose of 25 mg/kg (iv), 0-5 h; type: functional
[7] = biological target: T1, Angiotensin-converting enzyme (Oryctolagus cuniculus); test: In vivo inhibition of angiotensin I converting enzyme (ACE) in rabbit lung after (iv) administration of a dose of 10(mg/kg); type: organism-based
Rattus norvegicus [8] = test: Antihypertensive activity was determined in spontaneously hypertensive rat at a dose of 100 mg/kg(ip) administration; type: functional
Rattus norvegicus [9] = test: Time duration was determined for the actioni (determination of MAP in ip administration) in rat; type: functional
[10] = biological target: T1, Angiotensin-converting enzyme (Oryctolagus cuniculus); test: Time to inhibit maximum angiotensin I converting enzyme in rabbit lung; type: functional, tissue-based
Rattus norvegicus [11] = species on record: Rattus norvegicus; test: The onset hour was determined in rat; type: functional
Rattus norvegicus [12] = test: Percent change in Na+in fasted rats at the dose of 25 mg/kg (iv), 5-24 h; type: functional
Rattus norvegicus [13] = test: Percent change in K+ in fasted rats at the dose of 100 mg/kg (po), 0-5 h; type: functional
Rattus norvegicus [14] = test: Percent change in urinary volume in fasted rats at the dose of 100 mg/kg (po), 0-5 h; type: functional, Urine
Rattus norvegicus [15] = test: Percent change in Na+ in fasted rats at the dose of 30 mg/kg (iv), 0-5 h; type: functional
[16] = biological target: T2, Angiotensin-converting enzyme (Oryctolagus cuniculus, UniProt P12822); test: In vitro inhibition of angiotensin I converting enzyme (ACE) in rabbit lung; type: tissue-based
T2 sequence (P12822 whole entry): T1 sequence (whole entry)

[17] = biological target: T1, Angiotensin-converting enzyme (Oryctolagus cuniculus); test: In vivo inhibition of angiotensin I converting enzyme (ACE) in rabbit lung at the dose of 10(mg/kg), po; type: organism-based
Rattus norvegicus [18] = test: Percent change in K+ in fasted rats at the dose of 30 mg/kg (iv), 0-5 h; type: functional
Rattus norvegicus [19] = test: Time duration was determined for the actioni (determination of MAP in case of oral administration) in rat; type: functional
Rattus norvegicus [20] = test: Antihypertensive activity was determined in spontaneously hypertensive rat at a dose of 100 mg/kg(po) administration; type: functional; settings: 100 mg/kg
Rattus norvegicus [21] = test: Percent change in urinary volume in fasted rats at the dose of 30 mg/kg (iv), 0-5 h; type: functional, Urine
Rattus norvegicus [22] = test: Percent change in Na+in fasted rats at the dose of 100 mg/kg (po), 0-5 h; type: functional
Rattus norvegicus [23] = test: Percent change in K+ in fasted rats at the dose of 30 mg/kg (ip), 0-5 h; NA=Inactive; type: functional, organism-based; parameters: dose 30 mg/kg
[24] = biological target: T1, Angiotensin-converting enzyme (Oryctolagus cuniculus); test: In vivo inhibition of angiotensin I converting enzyme (ACE) in rabbit lung after (po) administration of a dose of 10(mg/kg); type: organism-based
Rattus norvegicus [25] = test: Percent change in urinary volume in fasted rats at the dose of 100 mg/kg (po), 5-24 h; type: functional, Urine
Rattus norvegicus [26] = test: Percent change in Na+in fasted rats at the dose of 100 mg/kg (po), 5-24 h; type: functional
Rattus norvegicus [27] = test: Percent change in K+ in fasted rats at the dose of 100 mg/kg (iv), 0-5 h; NA=Inactive; type: functional, organism-based; parameters: dose 100 mg/kg
[28] = biological target: T1, Angiotensin-converting enzyme (Oryctolagus cuniculus); test: In vivo inhibition of angiotensin I converting enzyme (ACE) in rabbit lung after (ip) administration of a dose of 10(mg/kg); type: organism-based
[29] = biological target: T1, Angiotensin-converting enzyme (Oryctolagus cuniculus); test: In vivo inhibition of angiotensin I converting enzyme(ACE) in rabbit lung at the dose of 10(mg/kg), po; type: organism-based
Rattus norvegicus [30] = test: Percent change in K+ in fasted rats at the dose of 100 mg/kg (po), 5-24 h; type: functional
[31] = biological target: T1, Angiotensin-converting enzyme (Oryctolagus cuniculus); test: Time to maximum inhibition of angiotensin I converting enzyme in rabbit lung; type: functional, tissue-based
Rattus norvegicus [32] = test: Percent change in K+ in fasted rats at the dose of 30 mg/kg (po), 0-5 h; type: functional
Rattus norvegicus [33] = test: Percent change in urinary volume in fasted rats at the dose of 10 mg/kg (iv), 0-5 h; type: functional, Urine
Rattus norvegicus [34] = test: Percent change in urinary volume in fasted rats at the dose of 30 mg/kg (po), 0-5 h; type: functional, Urine
Rattus norvegicus [35] = test: Percent change in Na+ in fasted rats at the dose of 10 mg/kg (iv), 0-5 h; type: functional
Rattus norvegicus [36] = test: Percent change in K+ in fasted rats at the dose of 10 mg/kg (iv), 0-5 h; type: functional
Rattus norvegicus [37] = test: Percent change in Na+in fasted rats at the dose of 30 mg/kg (po), 0-5 h; type: functional

Work on `C[C@H](N[C@@H](CCc1ccccc1)C(=O)O)C(=O)N1C[C@@H](NS(=O)(=O)c2cc3c(cc2Cl)NC=NS3(=O)=O)C[C@H]1C(=O)O` yielded a Change (Rattus norvegicus [1]) of 0%, a Change (Rattus norvegicus [2]) of 67% and a Duration [3] of 1.25 h. The Change (Rattus norvegicus [4]) was 40%, the Change (Rattus norvegicus [5]) was 61% and the Change (Rattus norvegicus [6]) was 0%. The inhibition [7] was 78%, the “Change in MAP” value (Rattus norvegicus [8]) was -11% and the Duration (Rattus norvegicus [9]) was 3 h. For the same molecule, the Time to max. inhibition [10] was 0.3 h, the Onset (Rattus norvegicus [11]) was under 0.25 h and the Change (Rattus norvegicus [12]) was 0%.

For `C[C@H](N[C@@H](CCc1ccccc1)C(=O)O)C(=O)N1CC(N(C)CCC2Nc3cc(Cl)c(S(N)(=O)=O)cc3S(=O)(=O)N2)C[C@H]1C(=O)O.Cl.Cl` (stereo partly specified), the Change (Rattus norvegicus [13]) was 40%, the Change (Rattus norvegicus [14]) was 0% and the Duration [3] was > 4 h and 3.7 h. It also gave a Change (Rattus norvegicus [15]) of 0%, an IC50 [16] of 18 nM and an inhibition [7] of 96%. For the same molecule, the inhibition [17] was 37%, the Change (Rattus norvegicus [18]) was 0% and the Duration (Rattus norvegicus [19]) was over 42 h. The “Change in MAP” value (Rattus norvegicus [20]) was -20% and -22%, the Change (Rattus norvegicus [21]) was 0% and the Duration (Rattus norvegicus [9]) was over 24 h. The Time to max. inhibition [10] was 2.7 h and 3 h, the Onset (Rattus norvegicus [11]) was 0.5 h and the Change (Rattus norvegicus [22]) was 36%.

`C[C@H](N[C@@H](CCc1ccccc1)C(=O)O)C(=O)N1C[C@@H](NS(=O)(=O)c2cc3c(cc2Cl)N=CNS3(=O)=O)C[C@H]1C(=O)O` was tested, and the IC50 [16] was 23 nM.

In the case of `C[C@H](N[C@@H](CCc1ccccc1)C(=O)O)C(=O)N1CC2(C[C@H]1C(=O)O)Nc1cc(Cl)c(S(N)(=O)=O)cc1S(=O)(=O)N2` (stereo partly specified), the Change (Rattus norvegicus [23]) is reported as “inactive”, the Duration [3] is reported as 2.1 h and the IC50 [16] is reported as 85 nM. It also gave a Time to max. inhibition [10] of 1 h and an inhibition [24] of 54%.

`C[C@H](N[C@@H](CCc1ccccc1)C(=O)O)C(=O)N1C(c2ccc(Cl)c(S(N)(=O)=O)c2)SC[C@H]1C(=O)O` (stereo partly specified) was tested, and the Change (Rattus norvegicus [13]) was 0%, the Change (Rattus norvegicus [14]) was -43% and the Change (Rattus norvegicus [25]) was -42%. The Change (Rattus norvegicus [26]) was -22%, the Change (Rattus norvegicus [27]) was “inactive” and the IC50 [16] was 8 nM. It also gave an inhibition [28] of 96%, an inhibition [29] of 44% and a Change (Rattus norvegicus [30]) of -45%. It also gave a Time to max. inhibition [31] of 0.3 h, a Time to max. inhibition [10] of 0.3 h and a Change (Rattus norvegicus [22]) of 0%.

`NS(=O)(=O)c1cc2c(cc1Cl)N=CNS2(=O)=O` [CHLOROTHIAZIDE] was tested, and the Change (Rattus norvegicus [32]) was 71%, the Change (Rattus norvegicus [33]) was 83% and the Change (Rattus norvegicus [34]) was 94%. The Change (Rattus norvegicus [35]) was 60%, the Change (Rattus norvegicus [36]) was 100% and the Change (Rattus norvegicus [37]) was 0%.
